Measurements taken from patent US9962362B2, “Use of small molecule inhibitors targeting EYA tyrosine phosphatase” (CHILDREN'S HOSPITAL MEDICAL CENTER, priority 2012, dated 2018).

Tests used:
[1] = system: retinal neovascularization; assay: Mouse model of oxygen-induced retinopathy; assay type: in vivo; settings: 100 or 50 pmoles injected at P12, analyzed at P16
From the text: The mouse model of oxygen-induced retinopathy mimics the retinopathy characteristic of proliferative retiopathy conditions such as retinopathy of prematurity and diabetic retinopathy. […] The resulting retinal hypoxia after day 12, when pups were brought back to 20% O2, induced excessive hypoxia-driven angiogenesis. A characteristic large avascular area at the center of the retina and excessive regrowth of superficial vessels (pre-retinal neovascular tufts) in the mid-peripheral region was observed. […] In contrast, inhibition of either Vegf or Vegfr2 in OIR experiments suppresses both neovascular tuft formation and revascularization.

PTP1B = PTP1B (Homo sapiens (Human), UniProt P18031); assay: PTP1B-catalyzed pNPP hydrolysis; assay type: biochemical; settings: EYA3 vs PTP1B
Chain of PTP1B (P18031 whole entry, species assumed, the tested form may be a part): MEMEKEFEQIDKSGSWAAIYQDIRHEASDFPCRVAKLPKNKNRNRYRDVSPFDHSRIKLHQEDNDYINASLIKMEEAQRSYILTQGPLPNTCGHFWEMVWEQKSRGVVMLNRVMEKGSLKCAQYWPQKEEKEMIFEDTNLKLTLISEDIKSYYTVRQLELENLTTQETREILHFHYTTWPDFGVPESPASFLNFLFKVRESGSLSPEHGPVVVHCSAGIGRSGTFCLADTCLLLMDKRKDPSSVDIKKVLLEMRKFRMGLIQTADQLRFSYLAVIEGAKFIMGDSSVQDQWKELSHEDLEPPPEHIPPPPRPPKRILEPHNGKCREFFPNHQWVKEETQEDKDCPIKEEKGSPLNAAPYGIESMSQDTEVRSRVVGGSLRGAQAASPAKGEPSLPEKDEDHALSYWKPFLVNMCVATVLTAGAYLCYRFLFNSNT
Description: The catalytic domain of human Eya2 (“hEYA2(ED)”) was similarly sub-cloned as a polyhistidine fusion construct in the vector pDEST-527. Fusion protein was purified by NiNTA chromatography and followed by size-exclusion chromatography over a Superdex-75 column. The relative purity of protein samples was determined using SDS-PAGE. PTP1B was purified as described previously (Rayapureddi, J. P. et al. Nature 426, 295-298 (2003), incorporated by reference in its entirety).
(§1) Screening Methods. An inhibitory assay was conducted using the previously described p-nitrophenylphosphate assay (Rayapureddi, J. P. et al. Nature 426, 295-298 (2003)). Briefly, ED was incubated in a reaction mixture containing 20 mM MES pH 6, 2 mM MgCl2, 125 μM inhibitor, 3.4 mM para-nitrophenol phosphate (pNPP) and 0.01 μg/μL enzyme.
PTP1B is a classical Cys-based tyrosine phosphatase.

[2] = system: developing zebrafish vasculature; assay: Zebrafish model of angiogenesis; assay type: in vivo; settings: for number of intersegmental vessels / defects in the developing vasculature: varying doses; for defects in the developing vasculature: exposure from 5.25 hpf, analysis at 24 hpf
Description: Embryos (FLK1-GFP trangenic) were maintained in fish water until the 50% epiboly stage (5.25 hpf) and were transferred into wells of 24-well plate containing the inhibitors in fish water. The analysis for vascular defects was performed after the 24 hpf stage, and embryos were imaged using a fluorescence microscope.
Transgenic fish expressing EGFP in endothelial cells (Tg(flk1:EGFP)) were used to facilitate visualization of the developing vasculature. In control experiments embryos were treated with 0.1% DMSO (vehicle). At the time of analyses (24 hpf) developing vessels normally migrated from the lateral plate mesoderm to the midline and formed the vascular cord, subsequently forming the dorsal aorta and the posterior cardinal vein and followed by the formation of intersegmental vessels at designated branch points (FIG. 6b).

HUVECs [3] = assay: HUVEC proliferation (MTT); assay type: cell-based, human; settings: 5 μM, 24 hours
retinal vasculature = assay: Post-natal retinal angiogenesis in mice; assay type: in vivo, mouse; settings: 100 μM injected into eyes at P0.5 and P3, P5 retinas
Description: Next, retinal blood vessel density and angiogenic extension were studied using induced deletion of Eya3 in mice by PDGFB-icreERT2 starting at the day of birth. Isolectin labeled retinal blood vessels at postnatal day 5 in control Eya3fl/fl (FIGS. 8b and 8d) and experimental Eya3fl/fl; PDGFB-icreERT2 (FIGS. […]) mice. FIGS. 8d and 8e are magnified images of the regions indicated in 8b and 8c, respectively.
Next, treatment with an inhibitor of Eya3 was performed to test the effect on post-natal retinal angiogenesis. Briefly, 100 μM of compound 1a was injected into the eyes of post-natal mice, at P0.5 and P3. P5 retinas were then analyzed for effects on the retinal vasculature.

mouse aortic rings = assay: Aortic ring sprouting angiogenesis assay; assay type: cell-based; settings: 5 μM, 10 days, VEGF-stimulated
Description: Endothelial cell migration can also be studied ex vivo using the aortic ring assay in which sprouting angiogenesis is monitored by the formation of vascular sprouts outside the wall of mouse aortic rings incubated in collagen matrix and stimulated by VEGF (Gerhardt, H., et al. EXS, 3-15 (2005), hereby incorporated by reference in its entirety). Briefly, mice were obtained from the Cincinnati Children's veterinary service and handled according to the institutional animal care and use protocol. […] Mice were 4 to 6 weeks old female C57BL16, and aortic ring explants were cultured at 37° C. in a humidified incubator under a 5% CO2 atmosphere.
Each inhibitor was serially diluted (between 0.25 mM and 7.5 mM) to stocks of 1000× the working concentrations in sterile 100% DMSO in order to achieve an equal final concentration of DMSO (0.1% v/v) in all culture conditions. For the experiments, the compounds were diluted in EBM containing 2.5% FBS, penicillin/streptomycin and 20 ng/ml VEGF165 (R&D Systems, Minneapolis, Minn.). Each compound was applied from the first day of culture over a 10-day period with medium change every two days. In all experiments, the vehicle (DMSO, 0.1%) was used as control. The sprouting density was derived from counting the number of branches per ring, and the extent of angiogenic sprouting was estimated by measuring the total surface area covered by the vessels as illustrated in FIG. 7.

MCF10A-EYA2 cells = assay: Transwell migration of MCF10A-EYA2 cells; assay type: cell-based; settings: for migration of MCF10A(EYA2) cells: 7.5 μM
From the text: The tyrosine phosphatase activity of Eya3 and Eya2 promotes single cell motility in breast cancer cells (Pandey, R. N. et al. Oncogene (2010) 29:3715-3722, incorporated by reference in its entirety). EYA2 is over-expressed in breast cancers and is associated with increased metastasis and a poorer outcome (Farabaugh, et al. Oncogene (2011) 259). […] Overexpression of EYA2, but not the tyrosine-phosphatase dead mutant, promoted cell motility (FIG. 2a). […] This effect was dose-dependent (FIG. 2d) and compound (1a) was able to reduce cell motility by over 50% at the lowest concentration (1 μM) tested.
In order to determine whether EYA3 knock down would affect cell migration, a modified Boyden chamber assay was used to measure HUVEC migration. Briefly, human umbilical vein endothelial cells (HUVECs) were purchased from Lonza (Walkersville, Md.) and maintained in the endothelial cell growth medium (PromoCell, Heidelberg, Germany), under a 5% CO2 atmosphere. MCF10A cells from ATCC were stably transfected with either pcDNA 3.2N5-DEST (vector control), V5-EYA2 or V5-EYA2(D250N). Transwell migration experiments were performed as previously described (Pandey, R. N. et al. Oncogene 29, 3715-3722, (2010)).

HUVECs [4] = assay: HUVEC tubulogenesis on matrigel; assay type: cell-based, human; settings: 7.5 μM (highest concentration tested)
Description: The EYA inhibitors were also tested in tubulogenesis assays. The tubulogenesis assays were performed in 15-well micro-slide (ibidi LLC, Verona Wis.), using growth factor-reduced matrigel (BD Bioscience, Billerica, Mass.). The matrix was prepared by loading 10 μl of matrigel in each micro-slide well and allowing it to solidify for 30 minutes at 37° C. HUVECs were trypsinized and resuspended at 100,000 cell/ml in EBM+2.5% FBS. 50 μl (5,000 cell) were loaded on top of the solidified matrigel and the preparation was incubated for 20 hours at 37° C. in a humidified incubator in a 5% CO2 atmosphere. Bright field images were taken using an inverted microscope at 2.5× magnification, which allowed imaging of the whole well in two pictures that were later merged in Photoshop. Tubular structures were traced and counted using NeuroJ (NIH, USA). In experiments with inhibitor, the inhibitor was added to the cell suspension before loading. Each sample was loaded in triplicate, and each treatment was repeated for reproducibility.

[5] = system: A673 (Ewings sarcoma) cells; assay: Mouse xenograft model of Ewings sarcoma; assay type: in vivo; settings: A673 xenograft in nude mice
Description: The affect of EYA inhibitors on a mouse xenograft model of Ewings sarcoma was tested. 5×10^6 A673 (Ewings sarcoma) cells in 0.1 ml sterile matrigel were injected subcutaneously into the dorsal flank region of nude mice. Approximately 5 days after injection, the tumors were about 100-300 mm^3. […] The dose for intra-peritoneal injections was 25 mg/kg/day. The tumor size was monitored every other day. Animals were sacrificed after 2 weeks, or when tumor volume approached 10% of animal weight.

EYA3-SIX2 interaction = EYA3-SIX2 interaction (Homo sapiens (Human), UniProt Q99504); assay: His-SIX2 pull-down of EYA3 on Ni-NTA; assay type: binding; settings: 50 μM, 15 minutes
Chain of EYA3-SIX2 interaction (Q99504 whole entry, looked up, stated change not applied): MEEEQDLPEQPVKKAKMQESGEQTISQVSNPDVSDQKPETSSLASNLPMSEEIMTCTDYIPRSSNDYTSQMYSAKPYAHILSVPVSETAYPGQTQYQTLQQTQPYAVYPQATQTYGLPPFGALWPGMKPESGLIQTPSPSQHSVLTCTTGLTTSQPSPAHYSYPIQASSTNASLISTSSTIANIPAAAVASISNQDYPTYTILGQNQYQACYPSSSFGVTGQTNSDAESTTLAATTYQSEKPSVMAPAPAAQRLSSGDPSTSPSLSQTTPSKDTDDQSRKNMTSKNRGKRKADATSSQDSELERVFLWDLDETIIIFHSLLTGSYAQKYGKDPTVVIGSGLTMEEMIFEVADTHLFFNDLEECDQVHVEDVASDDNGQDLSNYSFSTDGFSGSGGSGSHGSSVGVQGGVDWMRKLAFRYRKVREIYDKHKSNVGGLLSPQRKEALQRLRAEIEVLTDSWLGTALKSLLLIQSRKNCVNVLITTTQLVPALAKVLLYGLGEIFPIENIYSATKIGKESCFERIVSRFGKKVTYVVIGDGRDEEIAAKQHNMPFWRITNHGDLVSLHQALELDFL
Chain of EYA3-SIX2 interaction (Q9NPC8 whole entry partner, looked up): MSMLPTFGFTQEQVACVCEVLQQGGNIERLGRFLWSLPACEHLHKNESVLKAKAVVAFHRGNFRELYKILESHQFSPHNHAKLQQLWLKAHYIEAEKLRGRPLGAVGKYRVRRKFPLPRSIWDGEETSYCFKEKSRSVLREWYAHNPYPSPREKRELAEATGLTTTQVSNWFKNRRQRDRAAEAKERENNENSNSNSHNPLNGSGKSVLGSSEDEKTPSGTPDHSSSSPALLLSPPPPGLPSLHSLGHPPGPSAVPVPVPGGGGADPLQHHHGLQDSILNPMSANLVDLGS
From the text: Each point represents the mean and standard deviation of two independent readings. (C) Plots of Vmax and Km as a function of inhibitor concentration. […] The mixture was loaded on a Ni-NTA column. Beads were washed with 3 column volumes of load buffer (last washes, lanes 2 and 6). Proteins retained on the beads are shown in lanes 3 and 7. Lanes 4 and 8 are molecular weight markers.
One function of the catalytic domain of the EYAs is to mediate its interaction with the SIX proteins. This complex then translocates to the nucleus where the SIX-EYA complex can activate transcription.

[6] = molecular target: full-length human recombinant EYA3 (Homo sapiens (Human), UniProt Q99504); assay: pNPP phosphatase assay, full-length EYA3; assay type: biochemical
Chain of full-length human recombinant EYA3 (Q99504 127-573): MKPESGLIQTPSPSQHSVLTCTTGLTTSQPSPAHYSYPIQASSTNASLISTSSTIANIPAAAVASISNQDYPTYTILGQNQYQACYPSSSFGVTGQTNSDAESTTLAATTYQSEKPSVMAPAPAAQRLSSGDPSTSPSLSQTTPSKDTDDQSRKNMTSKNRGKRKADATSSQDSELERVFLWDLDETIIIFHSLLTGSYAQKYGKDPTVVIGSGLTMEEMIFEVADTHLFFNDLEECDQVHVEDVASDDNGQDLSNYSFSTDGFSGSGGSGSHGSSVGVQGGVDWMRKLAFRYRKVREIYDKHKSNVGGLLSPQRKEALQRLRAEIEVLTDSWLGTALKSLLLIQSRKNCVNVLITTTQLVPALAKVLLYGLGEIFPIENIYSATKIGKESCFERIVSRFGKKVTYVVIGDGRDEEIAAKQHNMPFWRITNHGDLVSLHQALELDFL
From the text: The catalytic domain of mouse Eya3 (“ED”, comprising residues 223-510 of Eya3) was purified as described by Rayapureddi, J. P. et al. (FEBS Lett 580, 3853-3859 (2006), incorporated by reference in its entirety). For full-length Eya3 (“hEYA3”), human Eya3 isoform 2 (representing the major species identified in human cell lines by mass spectrometry, expressed as residues 127-573 of NM_001990, isoform 1) was sub-cloned into pDEST565 to express a poly-histidine-Glutathione-S-transferase (His-GST) tagged fusion protein with a TVMV protease site. The protein was purified by glutathione-S-transferase affinity chromatography followed by TVMV cleavage, Ni-NTA chromatography, and finally size exclusion chromatography.
as §1
The compounds were then tested using full-length human recombinant, purified EYA3 and pNPP as a substrate. Compounds were dissolved in DMSO and diluted as needed. […] Reactions were incubated at 30° C. for 30 minutes and quenched with 100 mM EDTA pH 10. IC50 values were then calculated directly from regression curves using PRISM software. […]

| Compound | formation of neovascular tufts [1] | greater activity towards EYA3 than PTP1B (PTP1B) | number of intersegmental vessels [2] | defects in the developing vasculature [2] | HUVEC cell proliferation (HUVECs [3]) | retinal vascular branch points (retinal vasculature) | aortic ring sprouting (mouse aortic rings) | reduction of cell motility (MCF10A-EYA2 cells; 1 μM (lowest concentration tested)) | migration of MCF10A(EYA2) cells (MCF10A-EYA2 cells) | inhibition of tubulogenesis (HUVECs [4]) | tumor growth [5] | intersegmental vessels ([2]; 0.25 μM (lowest dose tested)) | EYA3-SIX2 interaction in presence of inhibitor (EYA3-SIX2 interaction) | Vmax and Km as a function of inhibitor concentration [6] | mode of inhibition of EYA3 (substrate titration) ([6]; increasing substrate concentration) |
| --- | --- | --- | --- | --- | --- | --- | --- | --- | --- | --- | --- | --- | --- | --- | --- |
| CCc1oc2ccccc2c1C(=O)c1ccc(O)cc1 [Compound 1a] | Significant reduction in the formation of neovascular tufts | over 100 fold | reduced the number of intersegmental vessels, but were less potent | Dose-dependent defects in the developing vasculature | no effect on cell proliferation | quantifiable decrease in branch points | shorter sprouts and significantly lower microvascular density | over 50% | significantly inhibited cell migration | – | – | – | – | – | – |
| CCCCc1oc2ccccc2c1C(=O)c1ccc(O)cc1 [Compound 1b] | Significant reduction in the formation of neovascular tufts | 4.7-6.5 fold | reduced the number of intersegmental vessels, but were less potent | Dose-dependent defects in the developing vasculature | no effect on cell proliferation | – | shorter sprouts and significantly lower microvascular density | – | significantly inhibited cell migration | effective | – | – | – | – | – |
| CCc1oc2ccccc2c1C(=O)c1cc(Br)c(O)c(Br)c1 [Compound 1, Benzbromarone, reference compound] | Significant reduction in the formation of neovascular tufts | 4.7-6.5 fold | – | Dose-dependent defects in the developing vasculature | no effect on cell proliferation | – | shorter sprouts and significantly lower microvascular density | – | significantly inhibited cell migration | effective | able to reduce tumor growth | significant reduction of intersegmental vessels | unaffected | both values decrease with increased inhibitor concentration | not a competitive inhibitor |
